Experimental data as given in patent publication US20260102413A1, “TREATING PAIN ASSOCIATED WITH CENTRAL SENSITIZATION” (Medicon Pharmaceuticals, Inc., priority 2022, published 2026).

Columns and labels:
[1] = type: in vivo, mouse; conditions: all tissues except the sciatic nerve (higher) and DRG (equal)
Description: At 0.5, 1, 3, 5, 12, 18, and 24 h, mice (n=4-5 mice/time point) were euthanized with CO2 inhalation. Blood was drawn immediately after death. Tissues, including paw skin, paw muscle, leg muscle, the sciatic nerve and lumbar DRG bilaterally were dissected quickly, immediately frozen in liquid nitrogen and stored at −80° C. until analyzed.

[2] = tested on: mice with paclitaxel-induced neuropathic pain (CIPN); test: von Frey paw withdrawal threshold (mechanical allodynia), paclitaxel-induced CIPN / central sensitization, treatment of established pain, topical test compounds; type: in vivo, mouse; conditions: paclitaxel mice; PS hydrogel 5%, sulindac 0.7% topical hind paws 3x/day from day 0; lidocaine 5% cream once 30 min before; pregabalin 10 mg/kg oral once 1 h before; day 14
Description: Paw withdrawn, licking or shaking were considered positive responses.
(§1) The first doses were administered 5 days after the last administration of paclitaxel (i.e., at day 0).
The PWT test was performed prior to the administration of paclitaxel (day −8) to establish the threshold in mice without neuropathic pain associated with CIPN (the value shown is an average of the PWT in all groups at day −8).
Pain associated with CIPN was established in line with the experiments disclosed herein. Mice were treated with naproxen 2.4% (equimolar to PN 5%), aspirin 1.7% (equimolar to PA2 5%); or ibuprofen 2.5% (equimolar to PI 5%) or vehicle applied topically to both hind paws 3×/day for 14 days.
CIPN was induced in mice with chemotherapeutic agents using established protocols (Carozzi et al, 2010; Currie et al, 2019; Eldridge et al, 2020).
The first doses were administered 1 day after the last administration of paclitaxel (i.e., at day 0).
as §1
The PWT test was performed on day 21, at the end of the experiment, but was also additionally determined on day 14 for LXIX.

[3] = drug levels in proximal and distal half of the sciatic nerve after topical PS; type: in vivo, mouse; conditions: paclitaxel-PN mice, PS 8% ointment 3x/d 2 wks; 30 min after last dose
Description: In a separate experiment we studied 8 mice with paclitaxel-induced PN treated with PS 8% ointment 3×/d for 2 wks. Mice were euthanized as above 30 minutes after the last dose of PS. From these mice we harvested both sciatic nerves dividing each into proximal and distal halves, and combined the corresponding halves of every two animals for assay of drug levels.

[4] = tested on: mice with paclitaxel-induced CIPN; test: thermal allodynia (paw withdrawal latency, radiant heat), paclitaxel CIPN model; type: in vivo, mouse; conditions: oral PS 50 mg/kg, sulindac 33 mg/kg 3x/day, day 16 of treatment
Description: Group 3: paclitaxel pluse sulindac (n=8)
Thermal allodynia was also determined for the mice study groups below (with 8 mice per group): • 1. Group 1: naïve mice (i.e. no paclitaxel) • 2. Group 2: paclitaxel only • 3. Group 3: paclitaxel plus vehicle • 4. Group 4: paclitaxel plus NO-sulindace • 5. Group 5: paclitaxel plus thiol-sulindac

## CC1=C(CC(=O)O)c2cc(F)ccc2/C1=C\c1ccc([S+](C)[O-])cc1 (stereo not shown) [sulindac, reference compound]
[1]
  sulindac levels as % of those of PS: around 25%
[2]
  PWT, g Mean ± SEM: 0.62 ± 0.05 g
[3]
  Fold difference distal vs proximal: 8.5
[4]
  PWL, sec Mean ± SEM: 7.87 ± 0.7 s
